Four compounds from ChEMBL document CHEMBL3525909, “Metabolism of LY654322, a growth hormone secretagogue, to an unusual diimidazopyridine metabolite” (Drug Metab Dispos, 2011) can be followed below.

Each structure is given as a SMILES string.

Data set [1] in a line: Drug level in Fischer 344 rat urine treated with 2-Methylalanyl-N-{1-[(1R)-1-(4-fluorophenyl)-1-methyl-2-oxo-2-pyrrolidin-1-ylethyl]-1H-imidazol-4-yl}-5-phenyl-D-norvalinamide at 3 mg/kg, iv and 30 mg/kg, po by LC-UV spectrophotometry. Format: ADME, organism-based. Particulars: in vivo.
The nature of data set [2]: Drug level in Fischer 344 rat urine treated with 2-Methylalanyl-N-{1-[(1R)-1-(4-fluorophenyl)-1-methyl-2-oxo-2-pyrrolidin-1-ylethyl]-1H-imidazol-4-yl}-5-phenyl-D-norvalinamide at 3 mg/kg, iv and 30 mg/kg, po by LC-MS analysis. The settings on record: in vivo. Format: ADME, organism-based.
The nature of data set [3]: Drug level in beagle dog urine treated with 2-Methylalanyl-N-{1-[(1R)-1-(4-fluorophenyl)-1-methyl-2-oxo-2-pyrrolidin-1-ylethyl]-1H-imidazol-4-yl}-5-phenyl-D-norvalinamide at 20 mg/kg, po by LC-MS analysis. The settings on record: in vivo. Type of data set: ADME, organism-based, Canis lupus familiaris. On the set-up: dose 20 mg/kg, route oral.
A short description of data set [4]: Terminal half life in Fischer 344 rat at 3 mg/kg, iv. Type of data set: ADME, organism-based. The arrangement: dose 3 mg/kg, route intravenous. Particulars: in vivo, read-out: beta t1/2 (converted).
The nature of data set [5]: Plasma clearance in Fischer 344 rat at 3 mg/kg, iv. Type of data set: ADME, organism-based. On the set-up: dose 3 mg/kg, route intravenous.
Data set [6] can be described thus: Drug excretion in Fischer 344 rat urine assessed as (2R,2'R)-2,2'-(diimidazo[4,5-b:4',5'-e]pyridine-1,7-diyl)bis(2-(4-fluorophenyl)-1-(pyrrolidin-1-yl)propan-1-one) formation at 3 mg/kg, iv and 30 mg/kg, po by LC-UV spectrophotometry. Format: ADME, organism-based. The settings on record: in vivo.
A short description of data set [7]: Oral bioavailability in Fischer 344 rat at 30 mg/kg. Type of data set: ADME, organism-based. The settings on record: in vivo.
The nature of data set [8]: Plasma clearance in beagle dog at 1 mg/kg, iv. The arrangement: dose 1 mg/kg, route intravenous. Format: ADME, organism-based, Canis lupus familiaris.
A short description of data set [9]: Terminal half life in beagle dog at 1 mg/kg, iv. Type of data set: ADME, organism-based, Canis lupus familiaris. The arrangement: dose 1 mg/kg, route intravenous. The settings on record: in vivo, read-out: beta t1/2 (converted).
The nature of data set [10]: Oral bioavailability in beagle dog at 3 mg/kg. Format: ADME, organism-based, Canis lupus familiaris. The settings on record: in vivo.
Data set [11] can be described thus: Drug excretion in Fischer 344 rat urine assessed as (2R,2'R)-2,2'-(diimidazo[4,5-b:4',5'-e]pyridine-1,7-diyl)bis(2-(4-fluorophenyl)-1-(pyrrolidin-1-yl)propan-1-one) formation at 3 mg/kg, iv and 30 mg/kg, po by LC-MS analysis. Format: ADME, organism-based. Particulars: in vivo.
Data set [12] can be described thus: Drug excretion in beagle dog urine assessed as (2R,2'R)-2,2'-(diimidazo[4,5-b:4',5'-e]pyridine-1,7-diyl)bis(2-(4-fluorophenyl)-1-(pyrrolidin-1-yl)propan-1-one) formation at 20 mg/kg, po by LC-MS analysis. Particulars: in vivo. Format: ADME, organism-based, Canis lupus familiaris. The arrangement: dose 20 mg/kg, route oral.
Data set [13] in a line: Drug metabolism in human hepatocytes assessed as (2R,2'R)-2,2'-(diimidazo[4,5-b:4',5'-e]pyridine-1,7-diyl)bis(2-(4-fluorophenyl)-1-(pyrrolidin-1-yl)propan-1-one) formation at 50 uM after 4 hrs. Format: ADME, cell-based, Hepatocyte.
The subject of data set [14] is Liver. As to the kind of experiment: Drug metabolism in rat liver slices assessed as (2R,2'R)-2,2'-(diimidazo[4,5-b:4',5'-e]pyridine-1,7-diyl)bis(2-(4-fluorophenyl)-1-(pyrrolidin-1-yl)propan-1-one) formation at 50 uM after 24 hrs. Type of data set: ADME, tissue-based.
In data set [15] the test system is Liver. As to the kind of experiment: Drug metabolism in dog liver slices assessed as (2R,2'R)-2,2'-(diimidazo[4,5-b:4',5'-e]pyridine-1,7-diyl)bis(2-(4-fluorophenyl)-1-(pyrrolidin-1-yl)propan-1-one) formation at 50 uM after 24 hrs. Format: ADME, tissue-based, Canis lupus familiaris.
Data set [16] deals with Plasma. Kind of data set: Drug metabolism in Fischer 344 rat plasma assessed as (R)-2-(4-amino-1H-imidazol-1-yl)-2-(4-fluorophenyl)-1-(pyrrolidin-1-yl)propan-1-one formation at 3 mg/kg, iv by LC-MS analysis. Format: ADME, organism-based. The arrangement: dose 3 mg/kg, route intravenous. Particulars: in vivo.
The subject of data set [17] is Plasma. Kind of data set: Drug metabolism in beagle dog plasma assessed as (R)-2-(4-amino-1H-imidazol-1-yl)-2-(4-fluorophenyl)-1-(pyrrolidin-1-yl)propan-1-one formation at 1 mg/kg, iv by LC-MS analysis. Format: ADME, organism-based, Canis lupus familiaris. On the set-up: dose 1 mg/kg, route intravenous. The settings on record: in vivo.
Data set [18] is described as follows: Drug excretion in Fischer 344 rat urine assessed as (R)-2-(4-amino-1H-imidazol-1-yl)-2-(4-fluorophenyl)-1-(pyrrolidin-1-yl)propan-1-one formation at 3 mg/kg, iv and 30 mg/kg, po by LC-MS analysis. Format: ADME, organism-based. The settings on record: in vivo.
Data set [19] can be described thus: Drug excretion in beagle dog urine assessed as (R)-2-(4-amino-1H-imidazol-1-yl)-2-(4-fluorophenyl)-1-(pyrrolidin-1-yl)propan-1-one formation at 20 mg/kg, po by LC-MS analysis. Type of data set: ADME, organism-based, Canis lupus familiaris. On the set-up: dose 20 mg/kg, route oral. Particulars: in vivo.
The test system of data set [20] is Plasma. As to the kind of experiment: Drug metabolism in Fischer 344 rat plasma assessed as (R)-2-(2-amino-2-methylpropanamido)-5-phenylpentanoic acid formation at 3 mg/kg, iv by LC-MS analysis. Format: ADME, organism-based. The arrangement: dose 3 mg/kg, route intravenous. Particulars: in vivo.
The subject of data set [21] is Plasma. As to the kind of experiment: Drug level in Fischer 344 rat plasma treated with 2-Methylalanyl-N-{1-[(1R)-1-(4-fluorophenyl)-1-methyl-2-oxo-2-pyrrolidin-1-ylethyl]-1H-imidazol-4-yl}-5-phenyl-D-norvalinamide at 3 mg/kg, iv by LC-MS/MS analysis. Format: ADME, organism-based. The arrangement: dose 3 mg/kg, route intravenous. Particulars: in vivo.
For data set [22], the system named is Plasma. Kind of data set: Drug level in beagle dog plasma treated with 2-Methylalanyl-N-{1-[(1R)-1-(4-fluorophenyl)-1-methyl-2-oxo-2-pyrrolidin-1-ylethyl]-1H-imidazol-4-yl}-5-phenyl-D-norvalinamide at 1 mg/kg, iv by LC-MS/MS analysis. The settings on record: in vivo. Type of data set: ADME, organism-based, Canis lupus familiaris. On the set-up: dose 1 mg/kg, route intravenous.

Regarding `C[C@](C(=O)N1CCCC1)(c1ccc(F)cc1)n1cnc2nc3ncn([C@@](C)(C(=O)N4CCCC4)c4ccc(F)cc4)c3cc21`, the Drug excretion result in data set [1], in [2] and in data set [3] was “metabolite_detected” throughout.
`CC(C)(N)C(=O)N[C@H](CCCc1ccccc1)C(=O)Nc1cn([C@@](C)(C(=O)N2CCCC2)c2ccc(F)cc2)cn1`: the half-life in data set [4] is 2 h; in [9], 5 h. Further, the clearance was determined as 75 mL/min/kg in data set [5] and 33 mL/min/kg in data set [8]. Besides, the Drug excretion entry in data set [6], in data set [11], in [12], in data set [18] and in data set [19] was “metabolite_detected” in each case. In addition, the results for the bioavailability in data set [7] and in data set [10] were 74% and 33%, respectively. The Drug metabolism result in data set [13] is listed as “metabolite_not_detected”; in [14], “metabolite_not_detected”; in data set [15], “metabolite_not_detected”; in data set [16] it was “metabolite_detected”; in [17], “metabolite_detected”; in [20], “metabolite_detected”.
For the compound `CC(C)(N)C(=O)N[C@H](CCCc1ccccc1)C(=O)O`, the Drug metabolism entry in [21] is given as “metabolite_detected”.
Take `C[C@](C(=O)N1CCCC1)(c1ccc(F)cc1)n1cnc(N)c1`: the Drug metabolism entry in [21] and in [22] was “metabolite_detected” in each case. Moreover, the Drug excretion entry in [2] and in data set [3] was “metabolite_detected” each time.
